We go through 9 molecules from US6573244B1 (priority 1999, dated 2003).

Ends that are not written are not given here.

Data set [1] concerns the target BttxB (Clostridium botulinum, UniProt P10844). Briefly: biochemical.
Data set [2] has as its system Bttxs. The following applies: cited from earlier work.
For data set [3] the following is noted: rat, in vivo, ip.
The target of data set [4] is T1, Botulinum toxin B, P10844.
T1 chain: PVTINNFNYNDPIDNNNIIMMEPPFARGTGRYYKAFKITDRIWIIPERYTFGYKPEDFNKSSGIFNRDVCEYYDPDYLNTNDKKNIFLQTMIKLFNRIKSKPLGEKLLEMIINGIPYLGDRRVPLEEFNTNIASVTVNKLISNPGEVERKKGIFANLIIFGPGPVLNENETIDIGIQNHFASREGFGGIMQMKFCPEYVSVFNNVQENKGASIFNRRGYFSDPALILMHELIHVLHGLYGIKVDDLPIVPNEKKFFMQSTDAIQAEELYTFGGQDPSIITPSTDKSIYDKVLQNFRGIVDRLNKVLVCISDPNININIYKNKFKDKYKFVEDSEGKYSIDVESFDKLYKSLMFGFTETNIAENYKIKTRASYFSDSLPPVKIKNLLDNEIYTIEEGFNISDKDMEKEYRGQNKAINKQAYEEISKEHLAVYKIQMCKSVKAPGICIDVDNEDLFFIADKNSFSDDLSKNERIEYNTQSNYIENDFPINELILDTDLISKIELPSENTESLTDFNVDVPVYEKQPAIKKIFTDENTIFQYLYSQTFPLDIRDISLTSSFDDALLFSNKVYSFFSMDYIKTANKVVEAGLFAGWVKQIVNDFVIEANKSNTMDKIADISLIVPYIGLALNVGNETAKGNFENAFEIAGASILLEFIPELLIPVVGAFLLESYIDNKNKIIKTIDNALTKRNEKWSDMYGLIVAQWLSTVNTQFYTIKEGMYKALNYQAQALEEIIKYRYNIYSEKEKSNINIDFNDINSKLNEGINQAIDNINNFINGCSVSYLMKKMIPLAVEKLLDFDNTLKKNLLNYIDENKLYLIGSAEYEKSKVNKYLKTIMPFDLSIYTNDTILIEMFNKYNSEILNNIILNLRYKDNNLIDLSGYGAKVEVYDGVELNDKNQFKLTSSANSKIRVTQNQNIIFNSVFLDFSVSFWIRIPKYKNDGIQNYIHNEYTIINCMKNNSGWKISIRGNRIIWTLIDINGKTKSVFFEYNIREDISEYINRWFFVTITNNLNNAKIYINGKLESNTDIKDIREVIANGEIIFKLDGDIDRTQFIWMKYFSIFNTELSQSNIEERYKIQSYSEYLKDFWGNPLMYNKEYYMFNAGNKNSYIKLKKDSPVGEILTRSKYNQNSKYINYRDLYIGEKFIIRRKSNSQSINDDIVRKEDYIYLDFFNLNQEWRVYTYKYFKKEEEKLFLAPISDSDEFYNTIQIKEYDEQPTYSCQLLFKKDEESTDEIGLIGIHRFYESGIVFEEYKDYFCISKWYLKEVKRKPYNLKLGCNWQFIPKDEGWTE
The experiment in a line: cell-based or functional assay.

With TRSRAKGLQFPGLLVHRLLRKGNY [Peptide 05P], the IC50 in data set [1] is < 200000 nM.

For `C[C@H](CS)C(=O)N1CCC[C@H]1C(=O)O` [captopril], the “inhibition of Bttxs, in words” value in data set [2] is on record as “not effective inhibitors”. With “AGRGKQGGKVRAKAKTRSSRAGLQFPVGRVHRLLRK [Peptide 36]”, in data set [1], the “substrate of BttxB or not” value is “not substrates”.

Turning to TRSSRAGLQFPVGRVHRLLRKGNY [Peptide 24], the “substrate of BttxB or not” value in data set [1] was “not substrates”. For the molecule ELDDRADALQ [Peptide V2], the “inhibition of Bttxs, in words” value in data set [2] is reported as “found to inhibit Bttx activity”. On to `CC(C)C[C@H](NC(=O)CNC(=O)[C@H](C)NC(=O)[C@H](CCCNC(=N)N)NC(=O)[C@H](CO)NC(=O)[C@H](CO)NC(=O)[C@H](CCCNC(=N)N)NC(=O)[C@@H](NC(=O)[C@H](CCCCN)NC(=O)[C@H](C)NC(=O)[C@H](CCCCN)NC(=O)[C@H](C)NC(=O)[C@H](CCCNC(=N)N)NC(=O)[C@@H](NC(=O)[C@H](CCCCN)NC(=O)CNC(=O)CNC(=O)[C@H](CCC(N)=O)NC(=O)[C@H](CCCCN)NC(=O)CNC(=O)[C@H](CCCNC(=N)N)NC(=O)CNC(=O)[C@H](C)N)C(C)C)[C@@H](C)O)C(=O)N[C@@H](CCC(N)=O)C(=O)N[C@@H](Cc1ccccc1)C(=O)N1CCC[C@H]1C(=O)N[C@H](C(=O)NCC(=O)N[C@@H](CCCNC(=N)N)C(=O)N[C@H](C(=O)N[C@@H](Cc1c[nH]cn1)C(=O)N[C@@H](CCCNC(=N)N)C(=O)N[C@@H](CC(C)C)C(=O)N[C@@H](CC(C)C)C(=O)N[C@@H](CCCNC(=N)N)C(=O)N[C@@H](CCCCN)C(=O)NCC(=O)N[C@@H](CC(N)=O)C(=O)N[C@@H](Cc1ccc(O)cc1)C(=O)O)C(C)C)C(C)C` [Buforin I], for which, in data set [1], inhibition was half-maximal at 1000 nM (IC50); the “mode of inhibition of BttxB activity” value is “dose-dependently and competitively inhibits”; the “substrate of BttxB or not” value is “not to be a substrate”. Besides, in data set [3], the “plateau (time to maximal-plateau level)” value is ≤ 40 min; the “time the maximal-plateau level was maintained” value was “up to 4 h”; the “time to reach ½ the absorbed maximal value” is 7.7 min; the “uptake into the blood stream, in words” value is recorded as “rapid uptake”. As for `CC(C)C[C@H](NP(=O)(O)O[C@@H]1O[C@@H](C)[C@H](O)[C@@H](O)[C@H]1O)C(=O)N[C@@H](Cc1c[nH]c2ccccc12)C(=O)O` [phosphoramidon], the “inhibition of Bttxs, in words” value in data set [2] is “not effective inhibitors”. In the case of RPKPQQFFGLM [Substance P], in data set [1], the “inhibition of BttxB, in words” value is recorded as “weak inhibitor” and the “substrate of BttxB or not” value is “not a substrate”. With TRSRAKGLQFPGLLVHRLLRKGNY (modifications not checked) [Peptide 05P], in data set [4], the inhibition of botulinum B proteolytic activity is < 200 µM and the potency of inhibition relative to Substance P was < 4 fold.
